Data published in article PMC6589325, “Evaluation of Anti-HIV-1 Integrase and Anti-Inflammatory Activities of Compounds from Betula alnoides Buch-Ham” (Advances in Pharmacological Sciences, 2019).
Like-named read-outs stand apart in the source and are kept apart here.

Legend:
HIV-1 IN [1] = biological target: T1, HIV-1 IN (Human immunodeficiency virus type 1 group M subtype B, UniProt P04585); conditions: cited from earlier work; for IC50: read-out: IC50 against HIV-1 IN (converted); for Effect against HIV-1 IN: isolated from Coleus parvifolius
T1 construct: using HIV-1 IN enzymes according to the multiplate integration assay (MIA)

HIV-1 IN [2] = biological target: T1, HIV-1 IN; assay: HIV-1 IN inhibitory activity, multiplate integration assay (MIA); assay type: biochemical
Description: The anti-HIV IN activity of isolated compounds was determined in an in vitro model using HIV-1 IN enzymes according to the multiplate integration assay (MIA) as previously described. Briefly, a mixture (45 μL) composed of 12 μL of IN buffer (containing 150 mM 3-(N-morpholino)propanesulfonic acid, pH 7.2 (MOPS), 75 mM MnCl2, 5 mM dithiothreitol (DTT), 25% glycerol, and 500 μg/mL bovine serum albumin), 1 μL of 5 pmol/mL digoxigenin-labeled target DNA, and 32 μL of sterilized water was added into each well of a 96-well plate. Subsequently, 6 μL of sample solution in DMSO and 9 μL of a 1/5 dilution of the IN enzyme were added to each well and incubated at 37°C for 80 min. After washing the plate three times with PBS with 0.05% Tween 20 (PBST), 100 μL of 500 mU/mL alkaline phosphatase- (AP-) labeled anti-digoxigenin antibody was added and incubated at 37°C for 1 h. The plates were washed with PBS three times. Then, AP buffer (150 μL) containing 100 mM Tris-HCl (pH 9.5), 100 mM NaCl, 5 mM MgCl2, and 10 mM p-nitrophenyl phosphate was added to each well and incubated at 37°C for 1 h. Finally, the absorbance of p-nitrophenol, the final product of the integration reaction, was measured with a microplate reader (Rayto, RT-2100C) at a wavelength of 405 nm. Suramin, a polyanionic HIV-1 IN inhibitor, was used as a positive control.

[3] = test system: RAW264.7 macrophage cells; assay: Viability assay of RAW264.7 macrophage cells (MTT); conditions: 24 h, cytotoxic when viability less than 80% of control
Description: The cytotoxicity of the test compounds after 24 h of incubation was determined by the colorimetric method described by Sudsai et al.. A volume of 10 μl of MTT solution (5 mg/ml in PBS) was added to each well of 96-well plates and further incubated in a CO2 incubator for 4 h. The formazan products generated by MTT reduction were dissolved in DMSO. At last, the medium was removed, 100 μl of DMSO was then added to each well and thoroughly mixed by gently tapping on the test plate. The absorbance of formazan solution was measured at a wavelength of 570 nm using a microplate reader. The test compounds were considered to be cytotoxic when the viability of the compound-treated group was less than 80% of that in the control (1% DMSO-treated) group.

[4] = test system: LPS-induced nitric oxide production in RAW264.7 cells; assay: Inhibitory effect on LPS-induced nitric oxide (NO) production in RAW264.7 cells (Griess reagent); assay type: cell-based; conditions: for inhibition at 3 µM / inhibition at 10 µM / inhibition at 30 µM / inhibition at 100 µM: read-out: % Inhibition at various concentration (μM), NO production; for IC50: read-out: IC50, inhibition of LPS-induced NO production
Description: To evaluate the anti-inflammatory activity, an inhibitory effect on nitric oxide (NO) production was carried out according to the previous report described by Sudsai et al.. Briefly, RAW264.7 cells were seeded onto 96-well plates (1 × 10^5 cells/well) and were maintained to adhere at 37°C for 1 h in a CO2 incubator containing 5% CO2. They were then cultured in RPMI-1640 medium containing lipopolysaccharide (LPS, 100 ng/ml) together with the test compounds at various concentrations (3–100 μM). After 24 h of incubation, the nitrite (NO^2–) concentration in the culture medium was determined as an indicator of NO production using the Griess reagent to assay the accumulation of NO^2–, a stable metabolite of NO. The absorbance was measured using a microplate reader at 570 nm. In this study, NO synthase inhibitor (L-nitro-arginine, L-NA), nuclear translocation of NF-κB inhibitor (caffeic acid phenethyl ester, CAPE) and nonsteroidal anti-inflammatory drug, NSAID (indomethacin), were used as positive controls.

[5] = read-out: % Inhibition at various concentrations
[6] = mean ± S.E.M. of four determinations, read-out: IC50, anti-HIV-1 integrase activity
[7] = Mus musculus, RAW264.7, 3 μM, LPS 100 ng/ml, 24 h
[8] = Mus musculus, RAW264.7, 10 μM, LPS 100 ng/ml, 24 h
[9] = Mus musculus, RAW264.7, 30 μM, LPS 100 ng/ml, 24 h
[10] = Mus musculus, RAW264.7, 100 μM, LPS 100 ng/ml, 24 h
[11] = Mus musculus, RAW264.7 cells, LPS 100 ng/ml, 24 h

SMILES	inhibition at 10 µM (HIV-1 IN [2]; [5])	inhibition at 30 µM (HIV-1 IN [2]; [5])	inhibition at 100 µM (HIV-1 IN [2]; [5])	IC50 (HIV-1 IN [2]; [6])	inhibition at 3 µM [4, 7]	inhibition at 10 µM [4, 8]	inhibition at 30 µM [4, 9]	inhibition at 100 µM [4, 10]	IC50 [4, 11]	other results
Oc1cc(O)c2c(c1)CCc1cc(O)c(O)cc1-2 [2,4,6,7-tetrahydroxy 9,10-dihydrophenanthrene]										IC50 (HIV-1 IN [1]; from bulbils of Dioscorea bulbifera): 14.2 µM
Oc1cc(O)c2c(c1)O[C@H](c1ccc(O)c(O)c1)[C@@H](O)C2 [(+)-Catechin]										IC50 (HIV-1 IN [1]; isolated from Albizia procera bark): 46.3 µM
C=C(C)[C@@H]1CC[C@]2(CO)CC[C@]3(C)[C@H](CC[C@@H]4[C@@]5(C)CC[C@H](O)C(C)(C)[C@@H]5CC[C@]43C)[C@@H]12 [Betulin (2), betulin]	41.2 ± 1.5%	57.6 ± 1.2%	70.7 ± 2.1%	17.7 ± 0.6 µM						Cytotoxicity to RAW 264.7 cells [3]: caused cytotoxicity; inhibition at 3 µM ([4]; Mus musculus, RAW264.7, 24 h): 2.9 ± 1.9%; inhibition at 10 µM ([4]; Mus musculus, RAW264.7, 24 h): 13 ± 1.6%; inhibition at 30 µM ([4]; Mus musculus, RAW264.7, 24 h): 58 ± 1.1%; inhibition at 100 µM ([4]; Mus musculus, RAW264.7, 24 h): 81.8 ± 1.2%; IC50 ([4]; Mus musculus, RAW264.7, 24 h): 30.1 ± 0.3 µM
C=C(C)[C@@H]1CC[C@]2(C(=O)O)CC[C@]3(C)[C@H](CC[C@@H]4[C@@]5(C)CC[C@H](O)C(C)(C)[C@@H]5CC[C@]43C)[C@@H]12 [Betulinic acid (1), betulinic acid]	39 ± 2.3%	53.2 ± 1.2%	65.6 ± 2.1%	24.8 ± 1.3 µM	14.6 ± 2.3%	22.1 ± 1.2%	49.4 ± 3.2%	79.5 ± 1.7%	31 ± 1.9 µM	
O=C(/C=C/c1ccc(O)c(O)c1)OCCc1ccccc1 [CAPE, caffeic acid phenethyl ester, reference compound]					22.7 ± 3.1%	48.6 ± 0.7%	66.8 ± 0.5%	85.9 ± 1%	12.3 ± 0.8 µM	
COc1ccc2c(c1)c(CC(=O)O)c(C)n2C(=O)c1ccc(Cl)cc1 [Indomethacin, indomethacin, reference compound]					32 ± 2.6%	43.8 ± 1.2%	54.1 ± 2%	79 ± 1.4%	17.6 ± 1.6 µM	
NC(=NCCC[C@H](N)C(=O)O)N[N+](=O)[O-] [L-NA, L-nitro-arginine, reference compound]										% Inhibition at various concentration (μM), NO production ([4]; 3 μM, LPS 100 ng/ml, 24 h): 19.3 ± 4.7%; % Inhibition at various concentration (μM), NO production ([4]; 10 μM, LPS 100 ng/ml, 24 h): 22.1 ± 1.9%; % Inhibition at various concentration (μM), NO production ([4]; 30 μM, LPS 100 ng/ml, 24 h): 32.6 ± 3.5%; % Inhibition at various concentration (μM), NO production ([4]; 100 μM, LPS 100 ng/ml, 24 h): 79.7 ± 4.8%; IC50 ([4]; RAW264.7 cells, LPS 100 ng/ml, 24 h): 40.4 ± 6.1 µM
C=C(C)[C@@H]1CC[C@]2(C)CC[C@]3(C)[C@H](CC[C@@H]4[C@@]5(C)CC[C@H](O)C(C)(C)[C@@H]5CC[C@]43C)[C@@H]12 [Lupeol (3), lupeol]	12.2 ± 1.3%	25.9 ± 2%	40.6 ± 1.8%	> 100 µM	6 ± 1.7%	11.4 ± 2.7%	23.4 ± 1.9%	78.2 ± 1%	47.3 ± 1 µM	IC50, anti-HIV-1 integrase activity (HIV-1 IN [2]; mean ± S.E.M. of four determinations): inactive; Cytotoxicity to RAW 264.7 cells [3]: caused cytotoxicity
CN1C[C@H](O)C[C@H]1C(=O)O [N-methyl-trans-4-hydroxy-L-proline]										IC50 (HIV-1 IN [1]; from Aglaia andamanica leaves): 81.3 µM
CC1(C)CC[C@]2(C(=O)O)CC[C@]3(C)C(=CC[C@@H]4[C@@]5(C)CC[C@H](O)C(C)(C)[C@@H]5CC[C@]43C)[C@@H]2C1 [Oleanolic acid (4), oleanolic acid]	33.4 ± 1.8%	49.1 ± 2.2%	65.5 ± 1.5%		10.9 ± 1.8%	18.4 ± 1.2%	28.2 ± 3.2%	63.4 ± 1%	62.8 ± 3.6 µM	IC50 (HIV-1 IN [2]; IC50, anti-HIV-1 integrase activity, mean ± S.E.M. of four determinations): 30.3 ± 1.3 µM
Cc1ccc(C(=O)Nc2ccc(S(=O)(=O)O)c3cc(S(=O)(=O)O)cc(S(=O)(=O)O)c23)cc1NC(=O)c1cccc(NC(=O)Nc2cccc(C(=O)Nc3cc(C(=O)Nc4ccc(S(=O)(=O)O)c5cc(S(=O)(=O)O)cc(S(=O)(=O)O)c45)ccc3C)c2)c1 [Suramin, reference compound]	70.9 ± 1.5%	93.3 ± 1.3%	99.9 ± 1.7%	2.8 ± 0.1 µM						inhibition at 1 µM (HIV-1 IN [2]; 1 μM, read-out: % Inhibition at various concentrations): 32.1 ± 0.6%; inhibition at 3 µM (HIV-1 IN [2]; 3 μM, read-out: % Inhibition at various concentrations): 50.3 ± 1.6%; IC50 (HIV-1 IN [2]; mean ± S.E.M. of four determinations, read-out: IC50, anti-HIV-1 IN activity of B. alnoides extract and its fractions (converted)): 3.01 µM
C[C@H]1[C@H](C)CC[C@]2(C(=O)O)CC[C@]3(C)C(=CC[C@@H]4[C@@]5(C)CC[C@H](O)C(C)(C)[C@@H]5CC[C@]43C)[C@H]12 [Ursolic acid (5), ursolic acid]	31.6 ± 0.9%	48.5 ± 1.2%	60.2 ± 2.1%	35 ± 1 µM	5.4 ± 2.3%	10.2 ± 3.2%	13.6 ± 3.2%	67.1 ± 1.8%	68.7 ± 5.9 µM	
O=C(/C=C/c1ccc(O)cc1)CC(=O)/C=C/c1ccc(O)cc1 [bisdemethoxycurcumin]										IC50 (HIV-1 IN [1]; from rhizomes of Boesenbergia kingii): 47.7 µM
COc1cc(O)c2c(=O)cc(-c3ccc(O)c(O)c3)oc2c1 [luteolin 7-methyl ether]										Effect against HIV-1 IN (HIV-1 IN [1]): potent
O=c1cc(-c2ccc(O)c(O)c2)oc2cc(O)cc(O)c12 [luteolin]										Effect against HIV-1 IN (HIV-1 IN [1]): potent
O=C(O)c1ccc(O)c(O)c1 [protocatechuic acid]										% inhibition of HIV-1 IN (HIV-1 IN [1]; 100 μM): 46.0%
